# Experiment: Qualitative analysis of AAI and metabolites in bile of bile duct-cannulated rats
# Assay type: in vivo, F344 rats
# Settings: 30 mg/kg AAI oral, bile collected 0–3 h, 3–6 h, 6–9 h, 9–12 h, qualitative UHPLC-Q-Exactive
# Method: Ten 6-week-old F344 rats were divided into a control group (n = 2) and a treatment group (n = 8), with equal numbers of males and females in each group. During the experiment, rats were fasted and had access to water ad libitum. Rats in the control group were administered with 0.5% CMC-Na suspension via gastric gavage. For the treatment group, rats were administered with 30 mg/kg of AAI by the same route. Rats underwent bile duct cannulation for bile sample collection. Bile samples were collected at consecutive intervals of 0–3 h, 3–6 h, 6–9 h and 9–12 h after administration.
# For each bile sample, a 200 μL aliquot of bile was mixed with an equal volume of a methanol/acetonitrile (1:1, v/v) solution. After vortexing for 2 min, the mixture was centrifuged at 13,200 rpm for 10 min. The precipitate was discarded, and the supernatant was dried under nitrogen gas. The dried residue was reconstituted in 80 μL of methanol, vortexed for 2 min, and centrifuged at 13,200 rpm for 15 min. The resulting supernatant was used for further analysis.
# Ultra-high-performance liquid chromatography (UHPLC) coupled with a Q-Exactive orbitrap mass spectrometer (Thermo Fisher Scientific, San Jose, CA, USA) was used to analyzed the metabolites of AAI in rat bile. An ACQUITY UPLC BEH C18 column (2.1 mm × 50 mm, 1.7 μm, Waters, Milford, MA, USA) was employed for chromatographic separation. The mobile phase consisted of water containing 5 mmol/L ammonium formate/0.1% formic acid (A) and acetonitrile (B).
# Metabolites in bile samples were analyzed using electrospray ionization (ESI) in both positive and negative ion modes. The spray voltage was set at 3500 V for positive mode and 3000 V for negative mode. The ion transfer tube temperature was maintained at 350 °C with a vaporizer temperature of 300 °C. The sheath gas and auxiliary gas flow rates were 35 Arb and 10 Arb. Full-scan MS data were acquired at a resolution of 35,000 within the mass range of m/z 100–1200. For MS/MS analysis, data-dependent acquisition (DDA) was performed at a resolution of 17,500 using high-energy collision dissociation (HCD). Post-acquisition data was imported into Compound Discoverer 2.1 software to identify AAI metabolites. Blank matrices were processed alongside samples to exclude the background interferences.
row,SMILES,detection in bile (biliary excretion)
1,COc1cccc2c1cc([N+](=O)[O-])c1c(C(=O)OC3OC(C(=O)O)C(O)C(O)C3O)cc3c(c12)OCO3 (stereo not drawn) [AAI-O-glucuronide],detectable in bile collected during four consecutive periods after oral administration
2,"COc1cccc2c1c(O)c1c3c(cc4c(c32)OCO4)C(=O)N1 [ALI-9-OH, 9-hydroxyaristolactam I]",detected in bile samples
3,"COc1cccc2c1cc1c3c(cc4c(c32)OCO4)C(=O)N1O [ALI-N-OH, N-hydroxyaristolactam I]",detected in bile samples
